In publication PMC10814725, “In Vitro Anti-Inflammatory Study of Limonoids Isolated from Chisocheton Plants” (Current Issues in Molecular Biology, 2024):
Where two headings read alike, the source gives them in different places.

Tests used:
[1] = test system: TNF-α; assay: ELISA of TNF-α production in LPS-stimulated THP-1 cells; type: cell-based, human; conditions: for IC50: Homo sapiens, THP-1, 18 h, read-out: TNF-α IC50; for TNF-α SI (selectivity index, CC50/IC50): THP-1 CC50 / TNF-α IC50
[2] = test system: IL-6; assay: ELISA of IL-6 production in LPS-stimulated THP-1 cells; type: cell-based, human; conditions: for IC50: Homo sapiens, THP-1, 18 h, LPS-stimulated (10 ng/mL) THP-1 cells, 1, 5, 10, 20 µM, 18 h; for IL-6 SI (selectivity index, CC50/IC50): THP-1 CC50 / IL-6 IC50
Method: The logarithmic growth phase of THP-1 cells was achieved by seeding in 96-well plates at a density of 5 × 10^4 cells/well and differentiated for 24 h in the presence of PMA (0.5 μM solution in medium). After 24 h of incubation, the culture medium was removed from the 96-well plate and the cells were washed with PBS. […] The cells were pretreated with 17 limonoids at the corresponding concentration for 1 h, followed by the addition of LPS (10 ng/mL) and then incubation at 37 °C for 18 h. Finally, 50 μL of each culture supernatant solution was taken to determine the concentrations of IL-6, MCP-1, and IL-1β using the corresponding commercially available human ELISA kits following the manufacturer’s instructions. The analyte concentration in the supernatant was measured in pg/mL, and the inhibition level was expressed as a fold change compared to the LPS (−) control group. To determine the IC50 value, the dose-response data were normalized to the LPS-stimulated-only group, and the percentage of inhibition was calculated using the following formula: % Inhibition=(Absorbance of LPS+ control−Absorbance of compound treatment with LPS)/(Absorbance of LPS+ control−Absorbance of LPS− control)×100
(§1) Furthermore, the % inhibition data were interpolated into linear equations to determine the IC50 values.

[3] = Cell viability by CCK-8, HEK-Blue hTLR4 cells; type: cell-based; conditions: human
Method: (§2) The viability of HEK-Blue^TM hTLR4, […], and THP-1 cells was evaluated using the Dojindo Cell Counting Kit-8 (CCK-8) according to the manufacturer’s instructions. The viability of HEK-Blue^TM hTLR4 and THP-1 cells was assessed under identical conditions to the corresponding assay treatments. HEK-Blue^TM hTLR4 cells (2 × 10^4 cells/well) were seeded in 96-well plates and serum-starved for 24 h at 37 °C in a 5% CO2 atmosphere. After incubation, the culture medium was aspirated, and the cells were washed with saline. High-glucose D-MEM supplemented with 0.1% FBS and 1% penicillin–streptomycin was added and pretreated with or without the 17 limonoids at a concentration of 20 µM for 1 h, followed by LPS addition at a concentration of 10 ng/mL. After 18 h of incubation, a 10% (v/v) CCK-8 solution was added to each well and incubated at 37 °C for 1 h, and cell viability was calculated.

[4] = Cell viability by CCK-8, THP-1 cells; type: cell-based; conditions: human, PMA-differentiated THP-1 cells; for CC50 at 18 h: concentration causing 50% cytotoxicity against THP-1 cells
Method: as §2
The THP-1 cells at 5 × 10^4 cells/well were differentiated for 24 h in the presence of PMA (0.5 μM solution in medium). After 24 h of incubation, the culture medium was removed from the 96-well plate and the cells were washed with PBS. Fresh RPMI-1640 medium supplemented with 0.1% FBS and 1% penicillin–streptomycin was added to each well and incubated at 37 °C for overnight. The cells were pretreated with 17 limonoids at the corresponding concentration for 1 h followed by the addition of LPS (10 ng/mL) and incubated at 37 °C for 18 h. Furthermore, CCK-8 solution was added to each well with a final concentration was 10% (v/v) and incubated at 37 °C. After 1 h, the absorbance of each well was measured at […] by using a microplate reader (BioTek Cytation 5 Cell Imaging Multimode Reader). Cell viability was calculated using the following formula: % Cell viability=(Absorbance of sample−Absorbance of Background)/(Absorbance of control−Absorbance of Background)×100 where the absorbance of the sample is the absorbance of cells treated by the compound with or without LPS, the absorbance of the control is the absorbance of LPS (−)-treated cells, and the background absorbance is the absorbance of a well containing only the medium. The results were expressed as 100% cell viability.

[5] = test system: phosphorylated-p38 MAPK; assay: Western blotting of phosphorylated-p38 MAPK in LPS-stimulated THP-1 cells; type: cell-based, human; conditions: 10 µM, LPS 10 ng/mL, 18 h, compared to LPS (+) group
Method: THP-1 cells were seeded at a density of 1 × 10^6 cells/well in 24-well plates. The cells were then pretreated with a concentration of 10 µM of compounds 3, 5, 9, or 15 for 1 h. Subsequently, LPS (10 ng/mL) was added to the cells, which were incubated for 18 h. The protein concentrations were determined using a bicinchoninic acid (BCA) assay kit.
For Western blot analysis, proteins were separated by SDS-PAGE and transferred onto a polyvinylidene fluoride (PVDF) membrane. The membranes were blocked with 2.5% BSA in Tris-buffered saline-Tween (TBST) for 1 h at room temperature. After three washes with TBST, the membranes were incubated with a diluted primary antibody solution (anti-phosphorylated-p38 MAPK or anti-p38 MAPK) at a 1:1000 dilution for 1 h at room temperature. After three washes with TBS-T, the membranes were incubated with a secondary antibody conjugated to horseradish peroxidase (HRP; 1:4000 dilution) for 30 min at room temperature and subsequently detected by chemiluminescence. Finally, the bands were visualized and quantified using an ImageQuant 800 GxP system (Cytiva, MA, USA). The results were expressed as ratios relative to the reference protein β-actin.

[6] = in vitro; type: cell-based; conditions: mouse
Method: as §2

[7] = test system: TNF-α, IL-6, IL-1β, and MCP-1; assay: ELISA of pro-inflammatory markers overall (TNF-α, IL-6, IL-1β, MCP-1) in LPS-stimulated THP-1 cells; type: cell-based; conditions: Homo sapiens, read-out: Overall IC50 values for the evaluated pro-inflammatory markers
Method: The logarithmic growth phase of THP-1 cells was achieved by seeding in 96-well plates at a density of 5 × 10^4 cells/well and differentiated for 24 h in the presence of PMA (0.5 μM solution in medium). After 24 h of incubation, the culture medium was removed from the 96-well plate and the cells were washed with PBS. Fresh RPMI-1640 medium supplemented with 0.1% FBS and 1% Penicillin–Streptomycin was added to each well and incubated at 37 °C overnight. The cells were pretreated with 17 limonoids at the corresponding concentration for 1 h, followed by the addition of LPS (10 ng/mL) and then incubation at 37 °C for 18 h. Finally, 50 μL of each culture supernatant solution was taken to determine the concentrations of IL-6, MCP-1, and IL-1β using the corresponding commercially available human ELISA kits following the manufacturer’s instructions. The analyte concentration in the supernatant was measured in pg/mL, and the inhibition level was expressed as a fold change compared to the LPS (−) control group. To determine the IC50 value, the dose-response data were normalized to the LPS-stimulated-only group, and the percentage of inhibition was calculated using the following formula: % Inhibition=(Absorbance of LPS+ control−Absorbance of compound treatment with LPS)/(Absorbance of LPS+ control−Absorbance of LPS− control)×100
as §1

[8] = test system: TLR4-dependent NF-kB activation in HEK-Blue hTLR4 cells; assay: SEAP reporter gene assay, antagonist effect on LPS-stimulated TLR4-dependent NF-κB activation; type: cell-based, human; conditions: 20 µM, LPS 10 ng/mL, 18 h, vs. LPS stimulated-only group
Method: The SEAP Reporter Gene Assay was conducted as previously described. HEK-Blue^TM hTLR4 cells (2 × 10^4 cells/well) were seeded in 96-well plates and were serum-starved for 24 h at 37 °C in a 5% carbon dioxide atmosphere. After incubation, the culture medium was aspirated, and the cells were washed with saline. High-glucose D-MEM supplemented with 0.1% FBS and 1% penicillin-streptomycin was added and treated with or without the 17 limonoids at a concentration of 20 µM for 1 h, followed by LPS addition at a concentration of 10 ng/mL for the LPS-stimulated group. After incubation at 37 °C for 18 h, the supernatants were collected and PNPP in PBS solution (0.8 mM, 100 μL) was added, followed by 4 h of shading at 25 °C. The optical density (OD) of the samples was measured at 405 nm using a microplate reader (BioTek Cytation 5 Cell Imaging Multimode Reader, Agilent Technologies, Santa Clara, CA, USA).

[9] = LPS-stimulated (10 ng/mL) THP-1 cells, 1, 5, 10, 20 µM, 18 h
[10] = Viability Cell (%) HEK-Blue hTLR4 LPS-Induced (10 ng/mL)
[11] = Viability Cell (%) HEK-Blue hTLR4 Without LPS
[12] = LPS 10 ng/mL, read-out: Viability Cell (%) THP-1 LPS-Induced (10 ng/mL)
[13] = without LPS, read-out: Viability Cell (%) THP-1 Without LPS

| Compound | IC50 [1, 9] [µM] | TNF-α SI (selectivity index, CC50/IC50) [1] | IC50 [2] [µM] | viability at 18 h, 20 µM [3, 10] [%] | viability at 18 h, 20 µM [3, 11] [%] | viability at 18 h, 10 µM [4, 12] [%] | viability at 18 h, 10 µM [4, 13] [%] | CC50 at 18 h [4] [µM] | Effect on p-p38 MAPK levels [5] | viability at 5 µM [6] [%] | viability at 10 µM [6] [%] | viability at 20 µM [6] [%] | IC50 [7] [µM] | Inhibition of SEAP release (NF-κB activity inhibition) [8] | IC50 [1] [µM] | IL-6 SI (selectivity index, CC50/IC50) [2] |
| --- | --- | --- | --- | --- | --- | --- | --- | --- | --- | --- | --- | --- | --- | --- | --- | --- |
| CC(=O)O[C@H]1[C@@H](OC(C)=O)[C@]2(C)[C@H](CC[C@@]3(C)[C@H](c4ccoc4)C[C@H]4O[C@@]423)[C@@]2(C)C=CC(=O)C(C)(C)[C@H]12 [Compound 4, 6α-(acetoxy)-14β,15β-epoxyazadirone] | 5.6 | 6.78 | 1.64 | > 99.9 | > 99.9 | > 99.9 | > 99.9 | 38 | significantly suppressed | 85 ± 5.66 | 85.9 ± 5.34 | 82.4 ± 1.15 | < 20 | – | – | – |
| CC(=O)O[C@@H]1C[C@]2(C)C(=CC[C@H]2c2ccoc2)[C@@]2(C)[C@H]1[C@@]1(C)C=CC(=O)C(C)(C)[C@@H]1C[C@H]2OC(C)=O [Compound 11, 11α-acetoxyazadirone] | – | – | – | 9.84 ± 7.34 | 52.6 ± 4.74 | > 99.9 | > 99.9 | – | – | 90.1 ± 7.88 | 79 ± 1.58 | 78.9 ± 2.21 | – | significantly inhibited SEAP release | – | – |
| C[C@]12C3=CC[C@@H](c4ccoc4)[C@]3(C)CC[C@@H]1[C@@]1(C)C(=O)C=C[C@@]3(C)CO[C@@H]([C@H]2O)[C@H]13 [Compound 12, ceramicine B] | – | 2.66 | – | > 99.9 | > 99.9 | 96.7 ± 4.3 | > 99.9 | 36.9 | significantly suppressed | > 99.9 | > 99.9 | 89.4 ± 6.9 | – | – | 13.9 | – |
| CC(=O)O[C@@H]1C[C@H]2C(C)(C)C(=O)C=C[C@]2(C)[C@H]2CC[C@@]3(C)[C@H](c4ccoc4)C[C@H]4O[C@]43[C@@]21C [Compound 13, trichilenone acetate] | – | – | – | > 99.9 | 92.4 ± 10.6 | > 99.9 | 90.8 ± 3.23 | – | – | > 99.9 | > 99.9 | 91.9 ± 4.37 | – | significantly inhibited SEAP release | – | – |
| CC(=O)O[C@@H]1C[C@H]2C(C)(C)C(=O)C=C[C@]2(C)[C@H]2CC[C@]3(C)C(=CC[C@H]3C3CCOC3=O)[C@@]21C (stereo partly drawn) [Compound 15, pentandricine B] | 16.4 | 5.88 | 7.37 | 84.4 ± 18.7 | > 99.9 | > 99.9 | > 99.9 | 96.6 | significantly suppressed | 92.8 ± 1.79 | 91.9 ± 3.59 | 90.9 ± 4.95 | < 20 | – | – | 13.11 |
| CC1(C)C(=O)C=C[C@]2(C)[C@H]3CC[C@]4(C)C(=CC[C@H]4C4CCOC4=O)[C@]3(C)[C@H](O)C[C@@H]12 (stereo partly drawn) [Compound 16, pentandricine C] | – | – | 5.69 | > 99.9 | > 99.9 | > 99.9 | 90.4 ± 7.6 | 110 | significantly suppressed | 91.8 ± 3.18 | 81.3 ± 7.05 | 89.4 ± 7.08 | < 20 | – | – | 19.40 |
